In patent US12559474B2, “Triazine derivatives having virus replication inhibitory activity and pharmaceutical composition comprising the same” (priority 2021, dated 2026):
Where two headings read alike, the source gives them in different places.

How the values were obtained:
SARS-CoV-2 = assay: microbe, parasite or virus in culture; format: cell-based; details: 50% SARS-CoV-2 infected cell death inhibitory concentration, VeroE6/TMPRSS2 cells, 3 days culture
SARS-CoV-2 3CL protease = SARS-CoV-2 3CL protease (Severe acute respiratory syndrome coronavirus 2, UniProt P0DTD1); assay: biochemical; details: 50% SARS-CoV-2 3CL protease inhibitory concentration, read-out: IC50
[1] = Severe acute respiratory syndrome coronavirus 2, VeroE6/TMPRSS2, 72 h, class symbols
[2] = Severe acute respiratory syndrome coronavirus 2, VeroE6/TMPRSS2, 72 h, CellTiter-Glo 2.0

| SMILES | EC50 (SARS-CoV-2; [1]) | IC50 (SARS-CoV-2 3CL protease; given as class symbols) | EC50 (SARS-CoV-2; [2]) | IC50 (SARS-CoV-2 3CL protease; RapidFire MS) | EC50 (SARS-CoV-2; class symbols) |
| --- | --- | --- | --- | --- | --- |
| Cn1cnc(Cn2c(=O)nc(Nc3cc4cn(C)nc4cc3Cl)n(Cc3cc(C#N)c(F)cc3Cl)c2=O)n1 [II-0088] | 1000 to 10000 nM | < 100 nM |  |  |  |
| Cc1cncc(-n2c(=O)nc(Nc3cc4cn(CC(F)F)nc4cc3Cl)n(Cc3ccc(F)c(C#N)c3)c2=O)c1 [II-0089] |  |  | 182 nM | 3.6 nM |  |
| Cc1cncc(-n2c(=O)nc(Nc3cc4cn(CC(F)F)nc4cc3Cl)n(Cc3cc(F)c(F)c(F)c3)c2=O)c1 [II-0090] |  |  | 355 nM | 16 nM |  |
| Cc1cncc(-n2c(=O)nc(Nc3cc4cn(C)nc4cc3Cl)n(Cc3cc(C#N)c(F)cc3CCC(C)C)c2=O)c1 [II-0092] | < 1000 nM | < 100 nM |  |  |  |
| COc1cc(F)c(C#N)cc1Cn1c(Nc2cc3cn(C)nc3cc2Cl)nc(=O)n(-c2cncc(C)c2)c1=O [II-0093] |  |  | 487 nM | 12 nM |  |
| Cc1cncc(-n2c(=O)nc(Nc3cc4cn(C)nc4cc3Cl)n(Cc3cc(F)c(F)cc3Cc3ccccc3)c2=O)c1 [II-0094] | 1000 to 10000 nM | < 100 nM |  |  |  |
| Cc1ccc(Cl)cc1Cn1c(Nc2cc3c(cc2Cl)nc2n3CCN2)nc(=O)n(-c2cncc(Cl)c2)c1=O [II-0095] | < 1000 nM | < 100 nM |  |  |  |
| Cc1cncc(-n2c(=O)nc(Nc3cc4cn(C5CCOCC5)nc4cc3Cl)n(Cc3ccc(F)c(C#N)c3)c2=O)c1 [II-0096] | < 1000 nM | < 100 nM |  |  |  |
| Cc1ccc(C#N)cc1Cn1c(Nc2cc3cn(C)nc3cc2F)nc(=O)n(-c2cncc(Cl)c2)c1=O [II-0097] | < 1000 nM | < 100 nM |  |  |  |
| Cn1cnc(Cn2c(=O)nc(Nc3cc4cn(C5CCOCC5)nc4cc3Cl)n(Cc3cc(Cl)c(F)cc3F)c2=O)n1 [II-0098] | 1000 to 10000 nM | < 100 nM |  |  |  |
| CC1(Cn2cc3cc(Nc4nc(=O)n(Cc5ccc[nH]c5=O)c(=O)n4Cc4cc(F)c(F)c(F)c4)c(Cl)cc3n2)COC1 [II-0099] | 1000 to 10000 nM | < 100 nM |  |  |  |
| Cc1cncc(-n2c(=O)nc(Nc3cc4cn(C[C@H](C)O)nc4cc3Cl)n(Cc3cc(F)c(F)cc3F)c2=O)c1 [II-0100] | < 1000 nM | < 100 nM |  |  |  |
| Cc1cncc(-n2c(=O)nc(Nc3cc4cn(C[C@H](C)O)nc4cc3Cl)n(Cc3cc(F)c(F)c(F)c3)c2=O)c1 [II-0101] | < 1000 nM | < 100 nM |  |  |  |
| Cn1cnc(Cn2c(=O)nc(Nc3cc4cn(C5CCOCC5)nc4cc3Cl)n(Cc3cc(F)c(F)cc3F)c2=O)n1 [II-0102] | 1000 to 10000 nM | < 100 nM |  |  |  |
| CNc1nc2cc(Cl)c(Nc3nc(=O)n(Cc4ncn(C)n4)c(=O)n3Cc3cc(Cl)c(F)cc3F)cc2o1 [II-0104] | 1000 to 10000 nM | < 100 nM |  |  |  |
| Cc1cncc(-n2c(=O)nc(Nc3ccc4nc(C)oc4c3)n(Cc3ccc(F)c(C#N)c3)c2=O)c1 [II-0105] | < 1000 nM | < 100 nM |  |  |  |
| Cc1cncc(-n2c(=O)nc(Nc3cc4c(cc3Cl)nc(C(F)F)n4C)n(Cc3ccc(F)c(C#N)c3)c2=O)c1 [II-0106] | 1000 to 10000 nM | < 100 nM |  |  |  |
| Cc1cncc(-n2c(=O)nc(Nc3cc4oc(C)nc4cc3F)n(Cc3ccc(F)c(C#N)c3)c2=O)c1 [II-0107] | 1000 to 10000 nM | < 100 nM |  |  |  |
| Cc1cncc(-n2c(=O)nc(Nc3cc4oc(C)nc4cc3Cl)n(Cc3ccc(F)c(C#N)c3)c2=O)c1 [II-0108] | 1000 to 10000 nM | < 100 nM |  |  |  |
| Cn1cc2cc(Nc3nc(=O)n(-c4cncc(Cl)c4)c(=O)n3Cc3cc(F)c(F)c(Cl)c3)ccc2n1 [II-0109] |  |  | 798 nM | 40 nM |  |
| Cc1cncc(-n2c(=O)nc(Nc3cc4oc(C)nc4cc3C)n(Cc3ccc(F)c(C#N)c3)c2=O)c1 [II-0110] | < 1000 nM | < 100 nM |  |  |  |
| Cc1cncc(-n2c(=O)nc(Nc3ccc4nn(C)cc4c3)n(Cc3cc(F)c(F)cc3F)c2=O)c1 [II-0111] |  |  | 1910 nM | 78 nM |  |
| Cn1cnc(Cn2c(=O)nc(Nc3cc4cn(CC(F)F)nc4cc3F)n(Cc3cc(F)c(F)c(F)c3)c2=O)n1 [II-0112] | 1000 to 10000 nM | < 100 nM |  |  |  |
| Cc1cncc(-n2c(=O)nc(Nc3cc4c(cc3Cl)OC(C)C4)n(Cc3ccc(F)c(C#N)c3)c2=O)c1 (stereo not shown) [II-0114] | < 1000 nM | < 100 nM |  |  |  |
| Cc1cncc(-n2c(=O)nc(Nc3cc4cn(C)nc4cc3F)n(Cc3cc(C#N)ccc3C)c2=O)c1 [II-0115] | < 1000 nM | < 100 nM |  |  |  |

| SMILES | EC50 (SARS-CoV-2; [1]) | IC50 (SARS-CoV-2 3CL protease; given as class symbols) | EC50 (SARS-CoV-2; [2]) | IC50 (SARS-CoV-2 3CL protease; RapidFire MS) | EC50 (SARS-CoV-2; class symbols) |
| --- | --- | --- | --- | --- | --- |
| Cc1cncc(-n2c(=O)nc(Nc3cc4c(cc3Cl)OC(C)C4)n(Cc3ccc(F)c(C#N)c3)c2=O)c1 (stereo not shown) [II-0117] |  | < 100 nM |  |  | < 1000 nM |
| CCn1cc2cc(Nc3nc(=O)n(-c4cncc(C)c4)c(=O)n3Cc3ccc(F)c(C#N)c3)c(Cl)cc2n1 [II-0118] |  |  | 121 nM | 4.5 nM |  |
| Cc1cncc(-n2c(=O)nc(Nc3cc4cn(C)nc4cc3Cl)n(Cc3cc(F)c(F)c(Cl)c3)c2=O)c1 [II-0119] |  |  | 183 nM | 8.9 nM |  |
| Cn1cc2cc(Nc3nc(=O)n(-c4cncc(Cl)c4)c(=O)n3Cc3ccc(F)c(C#N)c3)c(Cl)cc2n1 [II-0120] |  |  | 127 nM | 9 nM |  |
| Cc1cncc(-n2c(=O)nc(Nc3cc4c(cc3Cl)OC(C)C4)n(Cc3ccc(F)c(C#N)c3)c2=O)c1 (stereo not shown) [II-0121] |  | < 100 nM |  |  | < 1000 nM |
| COc1cc(C)c(Nc2nc(=O)n(-c3cncc(C)c3)c(=O)n2Cc2ccc(F)c(C#N)c2)cn1 [II-0122] | 1000 to 10000 nM | < 100 nM |  |  |  |
| Cc1cncc(-n2c(=O)nc(Nc3cnc(OCC(F)F)cc3C)n(Cc3ccc(F)c(C#N)c3)c2=O)c1 [II-0123] | 1000 to 10000 nM | < 100 nM |  |  |  |
| Cc1cncc(-n2c(=O)nc(Nc3ccc4nn(C)cc4c3)n(Cc3cc(C#N)ccc3C)c2=O)c1 [II-0125] |  |  | 220 nM | 4.8 nM |  |
| CNc1nc2cc(Cl)c(Nc3nc(=O)n(-c4cncc(Cl)c4)c(=O)n3Cc3cc(C#N)c(F)cn3)cc2s1 [II-0126] | 1000 to 10000 nM | < 100 nM |  |  |  |
| CCn1cc2cc(Nc3nc(=O)n(-c4cncc(Cl)c4)c(=O)n3Cc3cc(C#N)c(F)cn3)c(Cl)cc2n1 [II-0127] | 1000 to 10000 nM | < 100 nM |  |  |  |
| N#Cc1cc(Cn2c(Nc3ccc4nc(NCC(F)F)sc4c3)nc(=O)n(-c3cncc(Cl)c3)c2=O)ccc1F [II-0129] | 1000 to 10000 nM | < 100 nM |  |  |  |
| Cc1cncc(-n2c(=O)nc(Nc3cc4cn(C)nc4cc3Cl)n(Cc3cc(F)c(F)c(C#N)c3)c2=O)c1 [II-0130] |  |  | 95 nM | 1.9 nM |  |
| Cc1cncc(-n2c(=O)nc(Nc3cc4c(cc3Cl)OCC4)n(Cc3cc(F)c(F)c(C#N)c3)c2=O)c1 [II-0131] | < 1000 nM | < 100 nM |  |  |  |
| Cn1cnc(Cn2c(=O)nc(Nc3cc4cn(CC(=O)N5CCOCC5)nc4cc3Cl)n(Cc3cc(Cl)c(F)cc3F)c2=O)n1 [II-0132] |  |  | 49800 nM | 2.5 nM |  |
| Cc1cncc(-n2c(=O)nc(Nc3cc4cn(CCO)nc4cc3Cl)n(Cc3ccc(F)c(C#N)c3)c2=O)c1 [II-0140] | 1000 to 10000 nM | < 100 nM |  |  |  |
| Cc1cncc(-n2c(=O)nc(Nc3cc4c(cc3Cl)OCCC4)n(Cc3ccc(F)c(C#N)c3)c2=O)c1 [II-0144] | < 1000 nM | < 100 nM |  |  |  |
| Cn1cc2cc(Nc3nc(=O)n(-c4cncc5ccccc45)c(=O)n3Cc3cc(F)c(F)c(C#N)c3)ccc2n1 [II-0154] | < 1000 nM | < 100 nM |  |  |  |
| Cc1cncc(-n2c(=O)nc(Nc3cc4c(cc3Cl)OCC4)n(Cc3ccc(F)c(C#N)c3)c2=O)c1 [II-0156] | < 1000 nM | < 100 nM |  |  |  |
| Cc1cncc(-n2c(=O)nc(Nc3cc4cn(C5COC5)nc4cc3Cl)n(Cc3ccc(F)c(C#N)c3)c2=O)c1 [II-0158] | 1000 to 10000 nM | < 100 nM |  |  |  |
| N#Cc1cc(Cn2c(Nc3ccc4c(c3)CCCO4)nc(=O)n(-c3cncc4ccccc34)c2=O)ccc1F [II-0159] | < 1000 nM | < 100 nM |  |  |  |
| Cc1cc2c(cc1Nc1nc(=O)n(-c3cncc4ccccc34)c(=O)n1Cc1ccc(F)c(C#N)c1)CCO2 [II-0160] | < 1000 nM | < 100 nM |  |  |  |
| Cc1cncc(-n2c(=O)nc(Nc3cc4cn(C)nc4cc3Cl)n(Cc3cc(F)cc(C#N)c3)c2=O)c1 [II-0161] | < 1000 nM | < 100 nM |  |  |  |
| COc1ccc(Nc2nc(=O)n(-c3cncc(C)c3)c(=O)n2Cc2ccc(F)c(C#N)c2)c(C)c1 [II-0162] | < 1000 nM | < 100 nM |  |  |  |
| Cn1cnc(Cn2c(=O)nc(Nc3cc4cn(CC(F)F)nc4cc3Cl)n(Cc3cc(F)c(F)cc3F)c2=O)n1 [II-0163] |  |  | 342 nM | 8.8 nM |  |
| Cc1cncc(-n2c(=O)nc(Nc3cc4cn(C)nc4cc3Cl)n(Cc3cc(F)c(F)c(F)c3F)c2=O)c1 [II-0164] |  |  | 195 nM | 9 nM |  |
